Data: the supplement of paper PMC7661543
± gives the standard deviation of the averaged measurements.

tested on: BT-20; experiment: relative cell number vs DMSO control (72 h) (% of DMSO); higher = less growth inhibition (more cells); settings: sgRNA knockout: sgNT, 1 nM
Method: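 QMAP-Seq: a pool of 5 breast cancer cell lines (ZR-75-1, SKBR3, HCC-38, MDA-MB-231, BT-20), each carrying 12 doxycycline-inducible Cas9 sgRNA perturbations (11 knockouts plus non-targeting sgNT), was treated with compounds for 72 h at four 10-fold doses (10 nM-10 uM or 1 nM-1 uM range). Barcodes were amplified and sequenced, and cell number was interpolated from 293T spike-in standard curves. The result is expressed as % of the median of DMSO wells. Two biological replicates.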

Work on `CC(C)C[C@H](NC(=O)[C@H](Cc1ccccc1)NC(=O)c1cnccn1)B(O)O` [Bortezomib] yielded a relative cell number of 71.71 ± 0.27.

same assay, conditions: sgRNA knockout: sgNT, 10 nM

Point of comparison: `CC(C)C[C@H](NC(=O)[C@H](Cc1ccccc1)NC(=O)c1cnccn1)B(O)O` [Bortezomib], relative cell number 74.6 ± 13. Against it:
- FC(F)c1nc2ccccc2n1-c1nc(N2CCOCC2)nc(N2CCOCC2)n1 [ZSTK474] — within error, 79.2 ± 5
- Cc1nc(Nc2ncc(C(=O)Nc3c(C)cccc3Cl)s2)cc(N2CCN(CCO)CC2)n1 [Dasatinib] — within error, 72.1 ± 28
- CN/C(=N\CCSCc1nc[nH]c1C)NC#N [Cimetidine] — higher, 111 ± 2.3
- COc1cc(CCc2cc(NC(=O)c3ccc(N4CC(C)NC(C)C4)cc3)n[nH]2)cc(OC)c1 (configuration not stated) [AZD4547] — within error, 66.6 ± 0.77
- CC(C)(C)c1ccc(S(=O)(=O)NCc2ccc(C(=O)Nc3cccnc3)cc2)cc1 [STF31] — higher, 101 ± 4.2
- CCC[C@H](NC(=O)/C(C#N)=C/c1cccc(Br)n1)c1ccccc1 [WP1130] — within error, 101 ± 53
- O=[N+]([O-])c1ccc(O)c2ncccc12 [Nitroxoline] — within error, 93.1 ± 19
- O=C1c2c(O)ccc(O)c2C(=O)c2c(NCCNCCO)ccc(NCCNCCO)c21 [Mitoxantrone] — within error, 55 ± 13
- N[C@@H](CC(=O)N1CCn2c(nnc2C(F)(F)F)C1)Cc1cc(F)c(F)cc1F [Sitagliptin] — within error, 107 ± 24
- CC(C)[C@H](O)C(=O)N[C@@H](C)C(=O)N[C@@H]1C(=O)N(C)CCc2ccccc21 [Semagacestat] — within error, 92.3 ± 13
- C=C1C(=O)O[C@H]2[C@H]1CC/C(C)=C/CC[C@@]1(C)O[C@@H]21 [Parthenolide] — higher, 108 ± 14
- COc1cc(/C=C/C(=O)CC(=O)/C=C/c2ccc(O)c(OC)c2)ccc1O [Curcumin] — higher, 116 ± 7.8
- Nc1nc(OCc2cc(Br)cs2)c2[nH]cnc2n1 [Lomeguatrib] — higher, 101 ± 13
- C=C(c1ccc(C(=O)O)cc1)c1cc2c(cc1C)C(C)(C)CCC2(C)C [Bexarotene] — higher, 122 ± 11
- Clc1ccc(C2(c3ccc(-c4cn[nH]c4)cc3)CCNCC2)cc1 [AT7867] — within error, 79.5 ± 20
- CS(=O)(=O)c1cccc(CNc2nc(Nc3ccc4c(c3)CCC(=O)N4)ncc2C(F)(F)F)c1 — higher, 118 ± 28
- N#Cc1ccc(COC[C@H]2O[C@@H](n3c(NCc4ccc(Cl)c(Cl)c4)nc4c(N)ncnc43)[C@H](O)[C@@H]2O)cc1 — within error, 108 ± 25
- CN(Cc1cnc2nc(N)nc(N)c2n1)c1ccc(C(=O)N[C@@H](CCC(=O)O)C(=O)O)cc1 [Methotrexate] — higher, 98.43 ± 0.61
- CC(C)CC(=O)Nc1n[nH]c2c1CN(C(=O)C1CCN(C)CC1)C2(C)C — higher, 114 ± 22
- CCCc1nn(C)c2c(=O)[nH]c(-c3cc(S(=O)(=O)N4CCN(C)CC4)ccc3OCC)nc12 [Sildenafil] — within error, 95.7 ± 16
- O=C1CCC(N2C(=O)c3ccccc3C2=O)C(=O)N1 (configuration not stated) [Thalidomide] — higher, 118 ± 11
- CC(C)(C(=O)NCC(F)(F)C(F)(F)F)C(=O)N[C@@H]1C(=O)Nc2ccccc2-c2ccccc21 — higher, 102 ± 5.3
- CC[C@@]1(O)C(=O)OCc2c1cc1n(c2=O)Cc2cc3c(CN(C)C)c(O)ccc3nc2-1 [Topotecan] — within error, 73.1 ± 10
- C=CC(=O)Nc1cc2c(Nc3ccc(F)c(Cl)c3)ncnc2cc1OCCCN1CCOCC1 [Canertinib] — within error, 69.3 ± 4.2

same assay, conditions: sgRNA knockout: sgNT, 100 nM

Point of comparison: `COc1cc(/C=C/C(=O)CC(=O)/C=C/c2ccc(O)c(OC)c2)ccc1O` [Curcumin], relative cell number 107 ± 32. Against it:
- FC(F)c1nc2ccccc2n1-c1nc(N2CCOCC2)nc(N2CCOCC2)n1 [ZSTK474] — within error, 99.2 ± 19
- Cc1nc(Nc2ncc(C(=O)Nc3c(C)cccc3Cl)s2)cc(N2CCN(CCO)CC2)n1 [Dasatinib] — within error, 82.2 ± 4.3
- CN/C(=N\CCSCc1nc[nH]c1C)NC#N [Cimetidine] — within error, 108 ± 20
- CC(C)C[C@H](NC(=O)[C@H](Cc1ccccc1)NC(=O)c1cnccn1)B(O)O [Bortezomib] — lower, 24.7 ± 9.2
- COc1cc(CCc2cc(NC(=O)c3ccc(N4CC(C)NC(C)C4)cc3)n[nH]2)cc(OC)c1 (configuration not stated) [AZD4547] — within error, 94.7 ± 4.5
- CC(C)(C)c1ccc(S(=O)(=O)NCc2ccc(C(=O)Nc3cccnc3)cc2)cc1 [STF31] — within error, 96.7 ± 4.5
- CCC[C@H](NC(=O)/C(C#N)=C/c1cccc(Br)n1)c1ccccc1 [WP1130] — within error, 78.7 ± 6.8
- O=[N+]([O-])c1ccc(O)c2ncccc12 [Nitroxoline] — within error, 87.9 ± 43
- O=C1c2c(O)ccc(O)c2C(=O)c2c(NCCNCCO)ccc(NCCNCCO)c21 [Mitoxantrone] — lower, 39.2 ± 9.2
- N[C@@H](CC(=O)N1CCn2c(nnc2C(F)(F)F)C1)Cc1cc(F)c(F)cc1F [Sitagliptin] — within error, 90.6 ± 5.2
- CC(C)[C@H](O)C(=O)N[C@@H](C)C(=O)N[C@@H]1C(=O)N(C)CCc2ccccc21 [Semagacestat] — within error, 86.5 ± 12
- C=C1C(=O)O[C@H]2[C@H]1CC/C(C)=C/CC[C@@]1(C)O[C@@H]21 [Parthenolide] — within error, 101 ± 3.3
- Nc1nc(OCc2cc(Br)cs2)c2[nH]cnc2n1 [Lomeguatrib] — within error, 115 ± 3.5
- C=C(c1ccc(C(=O)O)cc1)c1cc2c(cc1C)C(C)(C)CCC2(C)C [Bexarotene] — within error, 119 ± 25
- Clc1ccc(C2(c3ccc(-c4cn[nH]c4)cc3)CCNCC2)cc1 [AT7867] — within error, 108 ± 32
- CS(=O)(=O)c1cccc(CNc2nc(Nc3ccc4c(c3)CCC(=O)N4)ncc2C(F)(F)F)c1 — higher, 145 ± 3.4
- N#Cc1ccc(COC[C@H]2O[C@@H](n3c(NCc4ccc(Cl)c(Cl)c4)nc4c(N)ncnc43)[C@H](O)[C@@H]2O)cc1 — within error, 92.7 ± 6.8
- CN(Cc1cnc2nc(N)nc(N)c2n1)c1ccc(C(=O)N[C@@H](CCC(=O)O)C(=O)O)cc1 [Methotrexate] — within error, 80.6 ± 3.4
- CC(C)CC(=O)Nc1n[nH]c2c1CN(C(=O)C1CCN(C)CC1)C2(C)C — lower, 66.5 ± 1.9
- CCCc1nn(C)c2c(=O)[nH]c(-c3cc(S(=O)(=O)N4CCN(C)CC4)ccc3OCC)nc12 [Sildenafil] — within error, 110 ± 2.7
- O=C1CCC(N2C(=O)c3ccccc3C2=O)C(=O)N1 (configuration not stated) [Thalidomide] — within error, 91 ± 0.81
- CC(C)(C(=O)NCC(F)(F)C(F)(F)F)C(=O)N[C@@H]1C(=O)Nc2ccccc2-c2ccccc21 — within error, 109 ± 5.9
- CC[C@@]1(O)C(=O)OCc2c1cc1n(c2=O)Cc2cc3c(CN(C)C)c(O)ccc3nc2-1 [Topotecan] — lower, 49 ± 8.1
- C=CC(=O)Nc1cc2c(Nc3ccc(F)c(Cl)c3)ncnc2cc1OCCCN1CCOCC1 [Canertinib] — lower, 59.3 ± 7.5

same assay, conditions: sgRNA knockout: sgNT, 1000 nM

Point of comparison: `FC(F)c1nc2ccccc2n1-c1nc(N2CCOCC2)nc(N2CCOCC2)n1` [ZSTK474], relative cell number 70.9 ± 21. Against it:
- Cc1nc(Nc2ncc(C(=O)Nc3c(C)cccc3Cl)s2)cc(N2CCN(CCO)CC2)n1 [Dasatinib] — higher, 105 ± 1.7
- CN/C(=N\CCSCc1nc[nH]c1C)NC#N [Cimetidine] — within error, 100 ± 8.2
- CC(C)C[C@H](NC(=O)[C@H](Cc1ccccc1)NC(=O)c1cnccn1)B(O)O [Bortezomib] — lower, 16.7 ± 2.3
- COc1cc(CCc2cc(NC(=O)c3ccc(N4CC(C)NC(C)C4)cc3)n[nH]2)cc(OC)c1 (configuration not stated) [AZD4547] — within error, 81.9 ± 15
- CC(C)(C)c1ccc(S(=O)(=O)NCc2ccc(C(=O)Nc3cccnc3)cc2)cc1 [STF31] — within error, 85.6 ± 20
- CCC[C@H](NC(=O)/C(C#N)=C/c1cccc(Br)n1)c1ccccc1 [WP1130] — higher, 100 ± 7
- O=[N+]([O-])c1ccc(O)c2ncccc12 [Nitroxoline] — higher, 114 ± 13
- O=C1c2c(O)ccc(O)c2C(=O)c2c(NCCNCCO)ccc(NCCNCCO)c21 [Mitoxantrone] — lower, 19.5 ± 5
- N[C@@H](CC(=O)N1CCn2c(nnc2C(F)(F)F)C1)Cc1cc(F)c(F)cc1F [Sitagliptin] — within error, 74.2 ± 14
- CC(C)[C@H](O)C(=O)N[C@@H](C)C(=O)N[C@@H]1C(=O)N(C)CCc2ccccc21 [Semagacestat] — higher, 113 ± 9.9
